Measured values published in patent US5189169A (priority 1991, dated 1993).
Several values for one entry are separate records, joined by “and”; a condition that tells them apart may be missing. Identical values can stand only once.

Experiments:
[1] = system: four grassy weeds: wild oat, watergrass, green foxtail and crabgrass; experiment: Pre-emergence herbicidal activity, grassy weeds (Table III); format: in vivo; settings: 2.24 kg/ha, 2-3 weeks after treatment
Experimental: (§1) The herbicidal effect was observed by comparing the extent of weed control in test flats treated with the compounds against that occurring in similar non-treated control flats. All were applied at 3.57 lb/A (4 kg/ha) to pre-emergence and post-emergence screening flats. An 80 gal/A (748.3 1/ha) spray volume was utilized. Post-emergence flats were seeded 12 days prior to treatment. Pre-emergence flats were seeded one day prior to treatment. Overhead watering of pre-emergence flats and soil surface watering of post-emergence flats, so as to avoid wetting the foliage, were carried out for the duration of the test.
(§2) Weed seeds were planted in a flat at a seed depth of 0.5 inch (1.3 cm). Soil for flats was prepared using loam soil fortified with 17-17-17 fertilizer (N-P2 O5 -K2 O on a weight basis) and Captan 80W fungicide. The test weeds were as follows:
(§3) The spray solutions were prepared by dissolving 240 mg of test compound in 20 ml of acetone containing 1% polyoxyethylene sorbitan monolaurate emulsifier, then adding 20 ml of water to the resulting solution. The spray solutions were applied using a linear spray table. Pre-emergence flats are raised to the level of the post-emergence foliage canopy by setting the flats on a wooden block.
(§4) The degree of weed control was visually assessed and recorded as percentage control compared to the growth of the same species in an untreated check flat of the same age. The rating scale ranges from 0 to 100%, where 0 equals no effect with plant growth equal to the untreated control, and 100 equals complete kill.
(§5) Compounds 68 to 145 in Table I were tested generally similarly to Compounds No. 1 to 67 with the following differences: The rate of application was 2 lb/acre (2.24 kg/ha), no 6-day evaluations were made, and the weeds were:
(§6) Four grassy weeds: wild oat, watergrass, green foxtail and crabgrass (Digitaria sanguinalis);
(§7) Ratings were taken 2-3 weeks after treatment.

[2] = system: three broadleaf weeds: wild mustard, redroot pigweed and curly dock; experiment: Pre-emergence herbicidal activity, broadleaf weeds (Table III); format: in vivo, Brassica kaber, Amaranthus retroflexus, Rumex crispus; settings: 2.24 kg/ha, 2-3 weeks after treatment
Experimental: as §1, §2, §3, §4, §5
(§8) Three broadleaf weeds: wild mustard, redroot pigweed (Amaranthus retroflexus) and curly dock (Rumex crispus).
as §7

[3] = system: four grassy weeds: wild oat, watergrass, green foxtail and crabgrass; experiment: Post-emergence herbicidal activity, grassy weeds (Table III); format: in vivo; settings: 2.24 kg/ha, 2-3 weeks after treatment
Experimental: as §1, §2, §3, §4, §5, §6, §7

[4] = system: three broadleaf weeds: wild mustard, redroot pigweed and curly dock; experiment: Post-emergence herbicidal activity, broadleaf weeds (Table III); format: in vivo, Brassica kaber, Amaranthus retroflexus, Rumex crispus; settings: 2.24 kg/ha, 2-3 weeks after treatment
Experimental: as §1, §2, §3, §4, §5, §8, §7

[5] = system: three grassy weeds (wild oat, watergrass, foxtail); design: species or system Avena fatua, Echinochloa crusgalli, Setaria viridis; settings: in vivo
[6] = system: three broadleaf weeds (morning glory, mustard, velvetleaf); design: species or system Ipomoea purpurea, Brassica kaber, Abutilon theophrasti; settings: in vivo
yellow nutsedge [7] = system: yellow nutsedge; design: species or system Cyperus esculentus; settings: in vivo
[8] = system: three broadleaf weeds (morning glory, mustard, velvetleaf); design: species or system Ipomoea purpurea, Brassica kaber, Abutilon theophrasti; settings: in vivo; remark: listed apart in the source
yellow nutsedge [9] = system: yellow nutsedge; design: species or system Cyperus esculentus; settings: in vivo; remark: listed apart in the source

Row | Compound | % Control, Pre-Emergence, GR Avg. [1] [%] | % Control, Pre-Emergence, BL Avg. [2] [%] | % Control, Post-Emergence, GR Avg. [3] [%] | % Control, Post-Emergence, BL Avg. [4] [%] | % Control, Pre-emergence, GR avg. [5] [%] | % Control, Pre-emergence, BL avg. [6] [%] | % Control, Pre-emergence, NS (yellow nutsedge [7]) [%] | % Control, Post-emergence, BL avg. [8] | % Control, Post-emergence, NS (yellow nutsedge [9]) [%]
1 | CCCN(CCC)P(=O)(SCC)N(C)c1ccccc1 (stereo not drawn) [Compound 119] | 0 | 0 | 30 | 67 | – | – | – | – | –
2 | C=CCSP(=O)(N(CCC)CCC)N(CCC)CCC [Compound 99] | 22 | 37 | 58 | 99 | – | – | – | – | –
3 | CCCCCCSP(=O)(N(CC)CCCC)N(CCC)CCC (stereo not drawn) [Compound 135] | 0 | 10 | 54 | 96 | – | – | – | – | –
4 | CCCCSP(=O)(N(CC)CC)N(CC)CC [Compound 69] | 13 | 0 | 30 | 87 | – | – | – | – | –
5 | CCCCN(CCCC)P(=O)(SCC)N(CC)CC (stereo not drawn) [Compound 84] | 5 | 13 | 75 | 99 | – | – | – | – | –
6 | C=CCN(CC=C)P(=O)(SCCC)N(CCC)CCC (stereo not drawn) [Compound 76] | 0 | 0 | 61 | 99 | – | – | – | – | –
7 | CCCCCSP(=O)(N(CC)CCCC)N(CCC)CCC (stereo not drawn) [Compound 133] | 0 | 10 | 59 | 97 | – | – | – | – | –
8 | CCCCN(CCCC)P(=O)(SCCC)N(CC)CC (stereo not drawn) [Compound 85] | 12 | 10 | 89 | 99 | – | – | – | – | –
9 | C=CCSP(=O)(N(CCC)CCC)N(CCCC)CCCC (stereo not drawn) [Compound 129] | 0 | 0 | 69 | 86 | – | – | – | – | –
10 | CCCCSP(=O)(N(CCCC)CCCC)N(CCCC)CCCC [Compound 83] | 5 | 7 | 82 | 99 | – | – | – | – | –
11 | CCCN(CCC)P(=O)(SC(C)(C)CC)N(CCC)CCC [Compound 81] | 0 | 0 | 66 | 83 | – | – | – | – | –
12 | CCCCCCSP(=O)(N(CCC)CCC)N(CCC)CCC [Compound 116] | 0 | 10 | 53 | 96 | – | – | – | – | –
13 | CCCN(CCC)P(=O)(SCC)N1CC(CC)CCC1C (stereo not drawn) [Compound 96] | 0 | 10 | 65 | 67 | – | – | – | – | –
14 | CCCSP(=O)(N(CCC)CCC)N(CCC)CCC [Compound 71] | 27 | 57 | 64 | 99 | – | – | – | – | –
15 | C=CCN(CC=C)P(=O)(SCC)N(CCC)CCC (stereo not drawn) [Compound 75] | 0 | 0 | 62 | 98 | – | – | – | – | –
16 | CCCN(CCC)P(=O)(SC(C)C)N1CC(CC)CCC1C (stereo not drawn) [Compound 97] | 0 | 20 | 67 | 86 | – | – | – | – | –
17 | CCCCN(CCCC)P(=O)(SC(C)C)N(C)C (stereo not drawn) [Compound 109] | 23 | 20 | 85 | 98 | – | – | – | – | –
18 | C=CCSP(=O)(N(CC)CCCC)N(CCC)CCC (stereo not drawn) [Compound 115] | 0 | 0 | 70 | 86 | – | – | – | – | –

Row | Compound | % Control, Pre-Emergence, GR Avg. [1] [%] | % Control, Pre-Emergence, BL Avg. [2] [%] | % Control, Post-Emergence, GR Avg. [3] [%] | % Control, Post-Emergence, BL Avg. [4] [%] | % Control, Pre-emergence, GR avg. [5] [%] | % Control, Pre-emergence, BL avg. [6] [%] | % Control, Pre-emergence, NS (yellow nutsedge [7]) [%] | % Control, Post-emergence, BL avg. [8] | % Control, Post-emergence, NS (yellow nutsedge [9]) [%]
19 | CCCCN(CCCC)P(=O)(SCC)N(CCCC)CCCC [Compound 82] | 0 | 0 | 75 | 99 | – | – | – | – | –
20 | CCCCSP(=O)(N(CC)CCCC)N(CCC)CCC (stereo not drawn) [Compound 90] | 0 | 7 | 86 | 100 | – | – | – | – | –
21 | CCCN(CCC)P(=O)(SC(C)CC)N(CCC)CCC (stereo not drawn) [Compound 80] | 25 | 53 | 80 | 100 | – | – | – | – | –
22 | CCCSP(=O)(N(CC)CC)N(CCC)CCC (stereo not drawn) [Compound 145] | 0 | 30 | 60 | 87 | – | – | – | – | –
23 | CCCCN(CCCC)P(=O)(SC(C)(C)C)N(CCC)CCC (stereo not drawn) [Compound 128] | 0 | 0 | 38 | 80 | – | – | – | – | –
24 | CCCN(CCC)P(=O)(SCc1ccccc1)N(CCC)CCC [Compound 95] | 5 | 13 | 55 | 80 | – | – | – | – | –
25 | CCCCN(CC)P(=O)(SC(C)C)N(CCC)CCC (stereo not drawn) [Compound 91] | 0 | 3 | 84 | 99 | – | – | – | – | –
26 | CCCN(CCC)P(=O)(SC(C)CC)N1CC(CC)CCC1C (stereo not drawn) [Compound 98] | 0 | 33 | 61 | 90 | – | – | – | – | –
27 | CCCCN(CCCC)P(=O)(SCC)N(CCC)CCC (stereo not drawn) [Compound 123] | 0 | 0 | 65 | 89 | – | – | – | – | –
28 | CCCN(CCC)P(=O)(Sc1ccccc1)N(CCC)CCC [Compound 78] | 0 | 0 | 50 | 98 | – | – | – | – | –
29 | CCCN(CCC)P(=O)(SC(C)C)N(CCC)CCC [Compound 79] | 35 | 50 | 85 | 99 | – | – | – | – | –
30 | CCCCN(CC)P(=O)(SCCC)N(CCC)CCC (stereo not drawn) [Compound 89] | 0 | 7 | 90 | 100 | – | – | – | – | –
31 | CCCCN(CC)P(=O)(SC(C)CC)N(CCC)CCC (stereo not drawn) [Compound 114] | 0 | 0 | 56 | 93 | – | – | – | – | –
32 | CCCCN(CCCC)P(=O)(SC(C)C)N(CCC)CCC (stereo not drawn) [Compound 125] | 0 | 0 | 59 | 70 | – | – | – | – | –
33 | CCCCN(CCCC)P(=O)(SC(C)C)N(CC)CC (stereo not drawn) [Compound 87] | 5 | 12 | 62 | 99 | – | – | – | – | –
34 | CCCCN(CCC(C)C)P(=O)(SCCC)N(CCCC)CCC(C)C [Compound 52] | – | – | – | – | 0 | 0 | 0 | 90% and 86% | 0
35 | CCCN(CCC)P(=O)(Sc1ccccc1Br)N(CCC)CCC [Compound 8] | – | – | – | – | 0 | 0 | 0 | 50% and 55% | 0
36 | CCCSP(=O)(N(CCC)CCC)N(C)c1ccccc1C(C)C (stereo not drawn) [Compound 56] | – | – | – | – | 31 | 6 | 0 | 85% and 90% | 0
